Assay results: ChEMBL document CHEMBL4184335, “Synthesis, Structure-Activity Relationships, and Preclinical Evaluation of Heteroaromatic Amides and 1,3,4-Oxadiazole Derivatives as 5-HT4 Receptor Partial Agonists” (J Med Chem, 2018)

How the values were obtained:
[1] = in vitro; settings: rat, liver microsomes
[2] = in vitro; settings: human, liver microsomes
[3] = in vivo; settings: Wistar, rat, iv, 1 mg/kg
[4] = in vivo; settings: Wistar, rat
[5] = in vivo; settings: Wistar, rat, po, 10 mg/kg
[6] = in vivo; settings: Wistar, rat, po, 3 mg/kg
[7] = in vivo; settings: Wistar, rat, po, 3 mg/kg; remark: listed apart in the source

Row | SMILES | metabolised at 0.5 h [1] | metabolised at 0.5 h [2] | clearance [3] | AUC [4] | bioavailability [6] | Cmax [7] | Kp at 1 h ([5]; brain and plasma) | Kp at 1 h ([5]; brain)
1 | COCCCN1CCC(CNC(=O)c2cccn3nc(C(C)C)nc23)CC1 | 23.4% | 2.7% |  |  |  |  |  | 
2 | CC(C)c1nc(C(=O)NCC2C3CN(C4CCOCC4)CC23)n2ccccc12 (stereo unspecified) | 0% | 24.4% | 62 mL/min/kg | 121 ng·h/mL | 15% | 60 ng/mL |  | 4
3 | OC1(CN2CCC(COc3noc4cccc(O[C@@H]5CCOC5)c34)CC2)CCOCC1 [PF-04995274] | 87.3% | 71.9% | 29 mL/min/kg | 94 ng·h/mL | 5.4% | 85 ng/mL | 0.7 | 

More lines, main results first:

Row | metabolised at 0.5 h [1] | metabolised at 0.5 h [2] | clearance [3] | AUC [4] | bioavailability [6] | Cmax [7] | Kp at 1 h ([5]; brain and plasma) | SMILES | Kp at 1 h ([5]; brain)
4 | 36.9% | 22.1% | 113 mL/min/kg | 828 ng·h/mL | 84% | 285 ng/mL |  | COCCCN1CCC(NC(=O)c2cc(Cl)c(N)c3c2OCC3)CC1 [PRUCALOPRIDE] | 
5 | 36.9% | 22.1% |  |  | 2% |  | 1.5 | CC(C)n1c(=O)c(C(=O)NCCCN2CCCCC2)c(O)c2ccsc21 [PRX-03140] | 
